# Results published in article PMC9892005, “Principles of mitoribosomal small subunit assembly in eukaryotes” (Nature, 2022).
# Experiments:
# METTL17 = target: T1, METTL17 (Homo sapiens, UniProt Q9H7H0); test: cryo-EM structure of native mtSSU assembly intermediates; assay type: binding; details: architectural cofactor; METTL17 bound to pre-mtSSU
# T1 construct: endogenous METTL17 with C-terminal linker-twinStrep-FLAG-10xHis-TEV-SPOT-3C-GFP tag, eluted with 3C protease
# T1 sequence (Q9H7H0 28-456): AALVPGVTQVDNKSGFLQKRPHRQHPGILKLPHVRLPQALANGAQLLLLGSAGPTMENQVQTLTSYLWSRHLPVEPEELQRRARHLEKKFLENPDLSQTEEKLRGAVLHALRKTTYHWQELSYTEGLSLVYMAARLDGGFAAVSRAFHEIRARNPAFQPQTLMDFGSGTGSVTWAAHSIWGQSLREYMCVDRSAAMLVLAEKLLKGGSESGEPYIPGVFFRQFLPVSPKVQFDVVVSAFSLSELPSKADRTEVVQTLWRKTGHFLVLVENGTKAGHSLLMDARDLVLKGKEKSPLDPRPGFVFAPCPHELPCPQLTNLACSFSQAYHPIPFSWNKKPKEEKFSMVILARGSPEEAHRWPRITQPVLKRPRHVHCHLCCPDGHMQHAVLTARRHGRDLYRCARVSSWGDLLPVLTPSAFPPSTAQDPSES
# Rsm22 = target: T2, Rsm22 (Saccharomyces cerevisiae, UniProt P36056); test: as above; assay type: binding; details: architectural cofactor; Rsm22 bound to pre-mtSSU
# T2 construct: native yeast mtSSU assembly intermediates; untagged Rsm22 in Ccm1-purified states 1 and 2, C-terminal linker-TEV-alfa-3C-mCherry tag (cleaved) in state 3
# T2 sequence (P36056 16-628): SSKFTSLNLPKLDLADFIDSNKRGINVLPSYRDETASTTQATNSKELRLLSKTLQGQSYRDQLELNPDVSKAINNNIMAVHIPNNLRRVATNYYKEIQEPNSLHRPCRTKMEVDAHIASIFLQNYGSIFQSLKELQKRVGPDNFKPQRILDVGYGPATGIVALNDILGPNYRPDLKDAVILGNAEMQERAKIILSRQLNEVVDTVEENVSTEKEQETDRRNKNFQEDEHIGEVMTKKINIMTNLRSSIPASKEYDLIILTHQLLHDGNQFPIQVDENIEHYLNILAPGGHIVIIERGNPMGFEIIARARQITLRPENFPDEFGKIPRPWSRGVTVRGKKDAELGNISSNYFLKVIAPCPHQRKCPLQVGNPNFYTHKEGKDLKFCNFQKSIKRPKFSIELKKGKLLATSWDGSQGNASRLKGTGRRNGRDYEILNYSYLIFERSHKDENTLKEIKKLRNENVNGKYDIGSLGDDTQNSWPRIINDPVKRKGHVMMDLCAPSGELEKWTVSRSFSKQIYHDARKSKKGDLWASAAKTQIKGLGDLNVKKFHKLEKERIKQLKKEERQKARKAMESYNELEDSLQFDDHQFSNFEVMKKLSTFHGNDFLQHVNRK
compound,measurement,setting,value
[S]12[Fe]3[S]4[Fe]1[S]1[Fe]2[S]3[Fe]41 [Fe4S4 cluster],cryo-EM structure of native mtSSU assembly intermediates,METTL17,identified an Fe4S4 cluster as an architectural cofactor of the Rsm22 (METTL17) protein family
same,cryo-EM structure of native mtSSU assembly intermediates,Rsm22,identified an Fe4S4 cluster as an architectural cofactor of the Rsm22 (METTL17) protein family
